We go through one substance from patent US20090074790A1, “Methods for measuring transforming growth factor beta (TGF-beta) receptor signaling activity and uses thereof” (priority 2004, published 2009).

For this assay, the system named is human keratinocytes. The experiment in a line: Growth of human keratinocytes (HKc/HPV16), TGFβ-induced growth arrest. To be noted: read-out: IC50 of growth inhibition of human keratinocytes, dose-dependent.

Regarding “TGFβ: Recombinant human TGFβ1 purchased from Austral Biologicals”, the half-inhibitory concentration (IC50) (usually the concentration needed to halve the response being measured) was around 5 pM.
